Source: patent publication US12110281B2, “Catechol derivatives or salt thereof, processes for preparing the same, and pharmaceutical compositions comprising the same” (HEXAPHARMATEC CO., LTD., priority 2018, dated 2024)
Counter-ions that a name gives are not always drawn.

What was measured:
Hela cells = assay: Autophagy-inducing activities in Hela cells (Autophagy Detection Kit); type: cell-based
Experimental: The autophagy-inducing activities of the compounds of the present invention were measured in Hela cells (Korean Cell Line Bank), using the Autophagy Detection Kit (ab139484, Abcam), according to the manufacturer's instructions. Specifically, 100 μL of EBSS (Earle's Balanced Salt Solution, WELGENE (LB 002-03)) containing 10% fetal bovine serum (FBS) was added to each well of a 96-well plate. Hela cells (1×10^4 cells) were added to each well and then incubated overnight at 37° C. in a CO2 incubator so as to stabilize the cells. The medium of each well containing the stabilized cells was replaced with a medium obtained by adding 10 nM or 100 nM of the compounds prepared in Examples (test compounds) to a EBSS containing 10% FBS. As a positive control, rapamycin was dissolved in dimethyl sulfoxide and then treated at a concentration of 500 nM per well. After the treatments, the cells were incubated at 37° C. in a CO2 incubator for 4 hours or 24 hours and then washed twice with the 1× assay buffer (prepared by adding 9 mL of distilled water to the 10× assay buffer). EBSS containing 5% fetal bovine serum, 1 μL/ml of Green detection reagent and 1 μL/ml of Nuclear stain was added thereto in the amount of 100 μL per well. The cells were incubated for 1 hour at 37° C. in a CO2 incubator and then washed twice with the 1× assay buffer. The absorbance values were measured at 488 nm, using a microplate reader (Cytation 3). The tests were repeated four times.
The absorbance values, which were obtained by treating Hela cells with the test compounds (100 nM) and the positive control (rapamycin, 500 nM) and then incubating for 4 hours as described in above, are shown in Table 1 below. And also, the absorbance values, which were obtained by treating Hela cells with the test compounds (10 nM or 100 nM) and the positive control (rapamycin, 500 nM) and then incubating for 24 hours as described in above, are shown in Table 2 below.

[1] = test system: dimethylnitrosamine (DMN)-induced liver injury male SD rats; assay: Liver function-improving activities by oral administration in the liver injury model (1), 3 weeks; type: in vivo, rat; details: serum, 25 mg/kg oral once a day
Description: The compounds according to the present invention were orally administered to dimethylnitrosamine (DMN)-induced liver injury male SD rats for 3 weeks, so as to evaluate liver function-improving activities. Specifically, 7-week-old male SD rats (Orient Bio, Korea) were accommodated to the laboratory environment at room temperature for 7 days. General symptoms were observed and then only healthy animals were used for the experiment. The rats were divided into 9 groups (n=5 for each group), the normal control group, the group to which only DMN is administered, and the groups to which both the compound of the present invention (the compounds of Example 2, 5, 6, 9, 10, 20 or 21) and DMN are administered. DMN was dissolved in purified water and then administered intraperitoneally at the dose of 10 mg/kg for 3 consecutive weeks (3 times per week, for 4 weeks). Blood samples were collected on Day 3 after the completion of the first-week liver injury inducement and then the ALT (Alanine Transaminase) values and the AST (Aspartate Transaminase) values were measured so as to confirm the liver injury thereof. The compounds of the present invention were administered for 3 weeks, i.e., from Day 4 after the completion of the first-week liver injury inducement to the DMN-administering period. The seven compounds of the present invention were dissolved in purified water or corn oil and then orally administered, using an oral sonde, at the dose of 25 mg/kg once a day for 3 weeks. Blood samples were collected on Day 0 (3 days after the completion of the first-week liver injury inducement) and Day 7, 14 and 21 after the administration of the test compounds. The collected blood was injected into a vacutainer tube containing a clot activator and then allowed to stand at room temperature for about 20 minutes so as to coagulate each blood sample. After centrifugation for 10 minutes, the resulting serums were subjected to blood-biochemical tests.

[2] = test compound 10 nM, incubation for 24 hours
[3] = test compound 100 nM, incubation for 4 hours
[4] = test compound 100 nM, incubation for 24 hours
[5] = 0 week (Day 0, before administration of test compound)

Row | Compound | Absorbance (at 488 nm) (Hela cells; [2]) | Absorbance (at 488 nm) (Hela cells; [3]) | Absorbance (at 488 nm) (Hela cells; [4]) | ALT values (average value) [1, 5] [U/L] | AST values (average value) [1, 5] [U/L] | ALT values (average value) ([1]; 1 week) [U/L] | AST values (average value) ([1]; 1 week) [U/L] | ALT values (average value) ([1]; 2 weeks) [U/L] | AST values (average value) ([1]; 2 weeks) [U/L] | ALT values (average value) ([1]; 3 weeks) [U/L] | AST values (average value) ([1]; 3 weeks) [U/L] | Absorbance (at 488 nm) (Hela cells; positive control 500 nM, incubation for 4 hours) | Absorbance (at 488 nm) (Hela cells; positive control 500 nM, incubation for 24 hours)
1 | COc1cc(-c2ccc(C(=O)N3CCN(C)CC3)s2)ccc1O [Example 1, hydrochloride] | 1617.3 | 1321.2 | 1660.3 | – | – | – | – | – | – | – | – | – | –
2 | CCN(CC)CCOc1ccc(-c2ccc(C(=O)N3CCN(C)CC3)s2)cc1OC.Cl.Cl [Example 2, N-(4-methylpiperazino)-5-(4-(2-diethylamino)ethoxy-3-methoxyphenyl)thiophene-2-carboxamide hydrochloride] | 1829.3 | 1460.5 | 1866.3 | 67.24 | 143.32 | 101.70 | 210.86 | 113.22 | 223.88 | 126.10 | 250.76 | – | –
3 | COc1cc(-c2ccc(C(=S)N3CCN(C)CC3)s2)ccc1O [Example 3, N-(4-methylpiperazino)-5-(4-hydroxy-3-methoxyphenyl)thiophene-2-thiocarboxamide hydrochloride] | 1576.3 | 1193.8 | 1754.3 | – | – | – | – | – | – | – | – | – | –
4 | CCN(CC)CCOc1ccc(-c2ccc(C(=S)N3CCN(C)CC3)s2)cc1OC.Cl.Cl [Example 4, N-(4-methylpiperazino)-5-(4-(2-diethylamino)ethoxy-3-methoxyphenyl)thiophene-2-thiocarboxamide hydrochloride] | 1691.3 | 1580.6 | 1618.3 | – | – | – | – | – | – | – | – | – | –
5 | COc1cc(-c2ccc(C(=O)NCCN(C(C)C)C(C)C)s2)ccc1O.Cl [Example 5, N-(2-(diisopropylamino)ethyl)-5-(4-hydroxy-3-methoxyphenyl)thiophene-2-carboxamide hydrochloride] | 1557.3 | 1348.0 | 1618.3 | 68.90 | 137.66 | 96.60 | 187.26 | 108.80 | 219.66 | 111.00 | 234.22 | – | –
6 | CCN(CC)CCOc1ccc(-c2ccc(C(=O)NCCN(C(C)C)C(C)C)s2)cc1OC.Cl.Cl [Example 6, N-(2-(diisopropylamino)ethyl)-5-(4-(2-diethylamino)ethoxy-3-methoxyphenyl)thiophene-2-carboxamide hydrochloride] | 1784.6 | 1670.5 | 1893.7 | 68.02 | 141.78 | 80.46 | 220.86 | 98.94 | 215.42 | 109.80 | 249.56 | – | –
7 | COc1cc(-c2ccc(C(=S)NCCN(C(C)C)C(C)C)s2)ccc1O.Cl [Example 7, N-(2-(diisopropylamino)ethyl)-5-(4-hydroxy-3-methoxyphenyl)thiophene-2-thiocarboxamide hydrochloride] | 1598.5 | 1325.5 | 1605.5 | – | – | – | – | – | – | – | – | – | –
8 | CCN(CC)CCOc1ccc(-c2ccc(C(=S)NCCN(C(C)C)C(C)C)s2)cc1OC.Cl.Cl [Example 8, N-(2-(diisopropylamino)ethyl)-5-(4-(2-diethylamino)ethoxy-3-methoxyphenyl)thiophene-2-thiocarboxamide hydrochloride] | 1586.3 | 1315.2 | 1612.3 | – | – | – | – | – | – | – | – | – | –
9 | CCN(CC)CCOc1ccc(-c2ccc(C(=O)NC(C)C)s2)cc1OC.Cl [Example 9, N-isopropyl-5-(4-(2-diethylamino)ethoxy-3-methoxyphenyl)thiophene-2-carboxamide hydrochloride] | 1594.0 | 1320.2 | 1951.7 | 67.64 | 140.64 | 103.78 | 220.58 | 111.80 | 241.06 | 117.92 | 222.50 | – | –
10 | CCN(CC)CCOc1ccc(-c2ccc(C(=S)NC(C)C)s2)cc1OC.Cl [Example 10, N-isopropyl-5-(4-(2-diethylamino)ethoxy-3-methoxyphenyl)thiophene-2-thiocarboxamide hydrochloride] | 1729.3 | 1390.0 | 1882.3 | 67.46 | 145.00 | 85.06 | 202.52 | 102.94 | 218.60 | 102.94 | 199.34 | – | –
11 | COc1cc(-c2ccc(C(=S)NC(C)C)s2)ccc1O [Example 11, N-isopropyl-5-(4-hydroxy-3-methoxyphenyl)thiophene-2-thiocarboxamide] | 1459.7 | 1268.4 | 1731.0 | – | – | – | – | – | – | – | – | – | –
12 | COc1cc(-c2ccc(C(=O)NCC3(N(C)C)CCOCC3)s2)ccc1O.Cl [Example 20, N-((4-(dimethylamino)tetrahydro-2H-pyran-4-yl)methyl)-5-(4-hydroxy-3-methoxyphenyl)thiophene-2-carboxamide hydrochloride] | – | – | – | 69.80 | 136.28 | 87.26 | 194.88 | 104.34 | 209.56 | 116.14 | 229.74 | – | –
13 | CO[C@H]1C[C@@H]2CC[C@@H](C)[C@@](O)(O2)C(=O)C(=O)N2CCCC[C@H]2C(=O)O[C@H]([C@H](C)C[C@@H]2CC[C@@H](O)[C@H](OC)C2)CC(=O)[C@H](C)/C=C(\C)[C@@H](O)[C@@H](OC)C(=O)[C@H](C)C[C@H](C)/C=C/C=C/C=C/1C [Rapamycin, rapamycin, reference compound] | – | – | – | – | – | – | – | – | – | – | – | 1306.2 | 1594.2
